Where two headings read alike, the source gives them in different places. Blank lines part the entries; values can stand above or below the molecule they belong to.
Experiments:
[1] = cited from earlier work
BALB/cByJ mice = assay: Mouse marble burying behavior; type: in vivo
From the text: Male BALB/cByJ mice (Jackson labs, Bar Harbor, Me.) were housed 5/cage upon arrival, at which time they were 7-8 weeks of age. Animals acclimated to the housing facility under standard laboratory conditions for a period of at least one week before testing (lights on at 6:00 AM). […] Fifteen minutes after the second injection, animals were individually placed into novel cages in which a layer of Aspen Pine bedding on which two parallel rows of 10 marbles each (i.e. twenty total) were placed. After 30 minutes had elapsed, the mice were removed from their test cages and returned to their home cages. The number of fully visible marbles (less than ⅔ covered with bedding) were counted and subtracted from 20 to arrive at the number of marbles buried.

NMRI/BOM mice = assay: Mouse forced swim test; type: in vivo; details: for ED50: SRI alone, mouse forced swim test; for ED50, SRI + 5-HTP (25 mg/kg): SRI in combination with 5-HTP 25 mg/kg SC
From the text: Male NMRI/BOM mice (18-25 g; Bomholtgaard, Denmark) were used. The mice were housed in plastic cages (35×30×12 cm), 10 in each and habituated to the animal facilities for at least a week before test. […] The animals had free access to commercial food pellets and tap water before test.
A mouse that is forced to swim in a spatially constrained container will exert a characteristic immobile posture. Pretreatment with an antidepressant will counteract this effect. […] Briefly, a fully automated test system with 6 swim units (2000 ml glass jars filled with 1200 ml soiled water (23-25° C.) in which a mouse had been placed previously) was used. The assessment of immobility was performed by image analysis.
Thirty minutes after drug or vehicle treatment the mice were treated with 5-HTP and 20 min later the mice were placed into the glass jar and left in the water for a total of 6 min. The accumulated duration of immobility was measured during the last 3 min. A total of 9-18 mice were tested per dose.

[2] = Mouse plasma levels of 5-HTP; type: in vivo; details: mouse forced swim test with escitalopram versus human clinical efficacy
Method: For this indication, typical doses of 100-200 mg of 5-HTP result in plasma levels of 50-100 ng/ml (Gijsman, H. J., et al., J Clin Psychopharmacol. 2002 April, 22(2):183-9).

[3] = typical doses of 100-200 mg 5-HTP; cited from earlier work
rat = details: cited from earlier work
[4] = tested on: extra-cellular 5-HT in frontal cortex; assay: Rat microdialysis, extracellular 5-HT in frontal cortex of freely moving rats; type: in vivo; details: escitalopram 0.5 mg/kg s.c. versus fluoxetine 10 mg/kg s.c.; 5-HTP 25 mg/kg s.c. 60 min later
Method: FIG. 1. […] Microdialysis in freely moving rats was performed as described in detail by Mark, […]. and Sanchez, C. […] Briefly, male Sprague-Dawley rats were prepared for microdialysis by surgically implanting intracerebral guide cannulas. A microdialysis probe was inserted through the guide cannula. Perfusion of the microdialysis probe with filtered Ringer solution (146 mM NaCl, 3 mM KCl, 1 mM MgCl2, 1.2 mM CaCl2) was done before the insertion of the probe and continued for the duration of the experiments at a constant flow of 1 μl/minute into the frontal cortex.

mouse = details: co-administration with L; cited from earlier work
[5] = in combination with escitalopram at a dose corresponding to a clinically effective concentration

- factor by which potentiating plasma levels in mouse are lower than those required for clinical efficacy in humans [2]: at least 3 times
SMILES: NC(Cc1c[nH]c2ccc(O)cc12)C(=O)O (centres unmarked) [5-HTP, 2-amino-3-(5-hydroxy-1H-indol-3-yl)-propanoic acid]
- mouse plasma level ([1]; 5-HTP 25 mg/kg): 17 ng/mL
- mouse plasma level ([1]; 5-HTP 50 mg/kg): 41 ng/mL
- marble burying, 5-HTP alone (BALB/cByJ mice; 5-HTP 2.5 mg/kg): no behavioral effect
- potentiation of the response to escitalopram (NMRI/BOM mice; 5-HTP 10, 15 and 50 mg/kg co-administered with escitalopram 0.5 mg/kg): significantly potentiates
- effect of 5-HTP alone (NMRI/BOM mice; 5-HTP 25 and 50 mg/kg without SRI): not by themselves effective
- 5-HTP dose at which maximum potentiation effect was achieved (NMRI/BOM mice; [5]): 50 mg/kg
- minimal effective dose of 5-HTP (NMRI/BOM mice; [5]): 10 mg/kg
- plasma levels in humans [3]: 50 to 100 ng/mL

SMILES: CN(C)CCC[C@@]1(c2ccc(F)cc2)OCc2cc(C#N)ccc21 [Escitalopram, S-(+)-1-[3-(dimethylamino)propyl]-1-(p-fluorophenyl)-5-phthalancarbonitrileoxalate]
- anxiolytic response to co-treatment with L, 5-HTP (rat): markedly enhanced
- marble burying, escitalopram without 5-HTP (BALB/cByJ mice; 0.25 mg/kg IP): inactive
- marble burying, escitalopram with 5-HTP (BALB/cByJ mice; escitalopram 0.0625-0.25 mg/kg plus 5-HTP 2.5 mg/kg): significant reduction in marble burying
- ED50 (NMRI/BOM mice): 12 mg/kg
- ED50, SRI + 5-HTP (25 mg/kg) (NMRI/BOM mice): 0.42 mg/kg
- 5-HTP potentiation effect measured as increase of extra-cellular 5-HT in the frontal cortex [4]: dramatically higher

SMILES: CNCCC(Oc1ccc(C(F)(F)F)cc1)c1ccccc1 (centres unmarked) [Fluoxetine]
- ED50 (NMRI/BOM mice): > 8.9 mg/kg
- ED50, SRI + 5-HTP (25 mg/kg) (NMRI/BOM mice): 5.4 mg/kg

SMILES: Fc1ccc([C@@H]2CCNC[C@H]2COc2ccc3c(c2)OCO3)cc1 [Paroxetine, (3S,4R)-3-((1,3-benzodioxol-5-yloxy)methyl)-4-(4-fluorophenyl)-piperidine]
- ED50 (NMRI/BOM mice): 6.5 mg/kg
- ED50, SRI + 5-HTP (25 mg/kg) (NMRI/BOM mice): 0.64 mg/kg
- antiaggressive effect with a subeffective dose of L, 5-HTP (mouse): greatly potentiated

SMILES: CN(C)CCC[C@]1(c2ccc(F)cc2)OCc2cc(C#N)ccc21 [R-citalopram]
- anxiolytic response to co-treatment with L, 5-HTP (rat): significant increase of ultrasonic vocalization

SMILES: COc1ccc(C(CN(C)C)C2(O)CCCCC2)cc1 (centres unmarked) [Venlafaxine]
- ED50 (NMRI/BOM mice): > 10 mg/kg
- ED50, SRI + 5-HTP (25 mg/kg) (NMRI/BOM mice): 3.9 mg/kg
